{"source": "patent US20190233796A1", "about": "“Generation of Inner Ear Cells” (Massachusetts Eye & Ear Infirmary, priority 2006, published 2019)", "system": "Math1-estrogen receptor (ER) fusion protein", "assay": "Tamoxifen-inducible Math1-estrogen receptor (ER) fusion construct in transfected cells", "type": "cell-based", "settings": "addition of tamoxifen to the transfected cells", "excerpt": "This Example describes a system in which administration of tamoxifen, a […], induces expression of Math1. A Math1-estrogen receptor (ER) fusion protein, where the ER has been mutated so that it selectively binds to tamoxifen rather than estrogen, is constitutively expressed. In the absence of tamoxifen, the Math1-ER construct remains quiescent within the cytosol where it is inactivated by heat shock proteins. […] The sequence of Math1 is given above."}
{"smiles": "CC/C(=C(\\c1ccccc1)c1ccc(OCCN(C)C)cc1)c1ccccc1", "note": "[tamoxifen]", "values": [{"measurement": "localization of the Math1-ER construct to the nucleus", "value": "dose-dependent localization of the Math1-ER construct to the nucleus"}]}
